Results from ChEMBL document CHEMBL1138702, “Determination of the free radical scavenging activity of dihydropyran-2,4-diones” (Bioorg Med Chem Lett, 2004).

Experiments:
[1] = Antioxidant ability determined by the parameter antiradical power that is related to the factor EC50
[2] = Concentration required to decrease the initial concentration of 2,2-diphenyl-1-picrylhydrazyl (DPPH) by 50% after 60 min

Question: For `COc1ccc(C2CC(=O)CC(=O)O2)cc1OC` (stereo not drawn), which ARP [1] is on record?
Answer: 0.14 m/M

Question: And the EC50 [2]?
Answer: 7.13 mM

Question: With `C/C=C/C1CC(=O)CC(=O)O1` (stereo not drawn) as the compound, how does the ARP [1] read?
Answer: 0.7 m/M

Question: What about the EC50 [2] of the same compound?
Answer: 1.44 mM

Question: With `O=C1CC(=O)OC(c2ccccc2)C1` (stereo not drawn) as the compound, how does the ARP [1] read?
Answer: 0.71 m/M

Question: And the EC50 [2]?
Answer: 1.4 mM

Question: With `COc1ccc(C2CC(=O)CC(=O)O2)cc1` (stereo not drawn) as the compound, how does the ARP [1] read?
Answer: 0.13 m/M

Question: What about the EC50 [2] of the same compound?
Answer: 7.61 mM
